{"source": "patent US6329497A", "about": "“Sandramycin analogs” (The Scripps Research Institute, priority 1999, dated 2001)", "key": {"[1]": {"biological_target": "T1, HIV-1 reverse transcriptase (Human immunodeficiency virus type 1 group M subtype B, UniProt P04585)", "test": "Inhibition of HIV-1 reverse transcriptase", "type": "biochemical", "procedure": "The assay was performed according to an available procedure (Goldman, M. E.; Salituro, G. S.; Bowen, J. A.; Williamson, J. M.; Zink, D. L.; Schleif, W. A.; Emini, E. A. Mol. Pharmacol. 1990, 38, 20) with slight modification. A 45 L solution of reaction buffer containing 55 mM Tris·HCl, pH 8.2, 80 mM potassium chloride, 12 mM MgCl2, 1 mM DTT, 50 M EGTA, 2.5 g/mL rA·dT, 0.5 Ci of [^3 H]TTP, 10 M TTP, 1 mg/mL BSA, and 0.01% Triton X-100 was added to a well in a filter cluster plate (Millipore MAHV N45). The reverse transcription reaction was initiated upon addition of the reverse transcriptase (1 unit; 1 unit=10 pmol of [^3 H]TMP incorporated/60 min at 37° C.). The plate was incubated at 37° C. for 90 min. The plate was then placed on ice and 200 µL of 13% trichloroacetic acid and 10 mM sodium pyrophosphate was added to each well. The plate was chilled for 2 h and the liquid vacuumed out through the filter using a Millipore manifold (Millipore MAVM 09601). The precipitate was washed with 1 M and 10 mM sodium pyrophosphate twice. The filter was punched out and placed in a scintillation vial. 4 mL of cocktail was added. Radioactivity was determined by liquid scintillation counting.\nThe effects of sandramycin and its analogs on HIV-1 reverse transcriptase were determined by incubating the agents and the rA·dT containing buffer at 25° C. for 30 min prior to addition of the reverse transcriptase. Reactions containing no agents were used as controls, and those lacking the transcriptase were used as blanks."}, "[2]": {"system": "calf thymus DNA and 5'-d(GCATGC)2", "test": "DNA binding affinity trends over calf thymus DNA and 5'-d(GCATGC)2 (fluorescence quenching)", "procedure": "(§1) Apparent absolute DNA binding constants for 1-22 and related agents including luzopeptin A were obtained by measurement of the fluorescence quenching upon titration addition of calf thymus DNA or the deoxyoligonucleotides 5'-d(GCXXGC)2 where XX=AT, TA, GC, and CG. For each agent, the characteristic fluorescence excitation and emission spectra were recorded in 10 mM Tris-HCl, 75 mM NaCl (pH 7.4) buffer, FIG. 6. For the DNA binding assays which quantitate the fluorescence quenching, excitation outside the absorbance range of DNA was employed and the most intense fluorescence emission at a longer wavelength monitored. For assay of the DNA-induced fluorescence quenching of the agents, a 2 mL buffer solution of Tris-HCl (pH 7.4) and 75 mM NaCl was employed. For titration, small aliquots of DNA were added to solutions of the agents in Tris-HCl buffer (pH 7.4).\n(§2) Despite these precautions, the fluorescence for a number of the analog solutions decreased for several of analogs (11, 14, 17, 21 and 22) and the quality of the binding constants for these should be viewed with caution. […] The titrations were carried out with 15 min time intervals between DNA additions to allow binding equilibration. […] The titration fluorescence quenching was analyzed by Scatchard analysis (Scatchard, G. Ann. N. Y. Acad. Sci. 1949, 51, 660) with the following equation: rb /c=Kb n-Kb rb where rb is the number of agent molecules bound per DNA base-pair, c is the free drug concentration, Kb is the apparent association constant, and n is the number of agent binding sites per base-pair.\nA pronounced downward curvature in an infinite lattice such as calf thymus DNA is recognized to arise in part from neighbor exclusion where the binding of an agent excludes the subsequent binding at nearby sites. This exclusion manifests itself in the plot by a reduction in the apparent binding constant as the DNA lattice approaches saturation and the probability of finding a free site is diminished. In the calf thymus DNA studies, the binding also entails multiple classes of independent binding sites or modes. For simplicity, a linear fit of the high affinity binding sites was used to determine the binding constant attributable to bis-intercalation. For the deoxyoligonucleotides, the curvature can be more simply attributed to multiple classes of independent binding sites or binding modes. There are a number of mathematical methods to deconvolute the curved plot into such individual binding events. In the deoxyoligonucleotide studies, a non-linear fit described by Feldman was also used to deconvolute the curves. The model assumes one ligand with two binding types or sites. Since the number of binding sites is limited, we have interpreted this to indicate a high affinity bis-intercalation and a lower affinity binding potentially involving mono-intercalation. The formula was fit using the JMP^22 statistical fitting program using an initial approximation of the two n values and fitting for K1 and K2.\nAfter 5 min of stirring, an initial fluorescence reading was taken with minimum exposure to the excitation beam. […] The excitation and emission wavelengths used for each analog varied and can be found in FIG. 6. The results of the titration were analyzed by Scatchard analysis. The linear portion of the Scatchard plot was used to determine the high affinity binding constants. In the case of the deoxyoligonucleotide study, a non-linear fit of the curve as described in the text was also used to determine the high affinity binding constant (Feldman, H. A. Anal. Biochem. 1972, 48, 317)."}, "L1210 cell line": {"system": "L1210 cell line", "test": "In vitro cytotoxic activity, L1210", "type": "cell-based"}, "[3]": {"test": "Solubility of the agents in assay buffer / water", "type": "physicochemical", "settings": "aqueous Tris-HCl/NaCl buffer pH 7.4"}, "calf thymus DNA [4]": {"system": "calf thymus DNA", "settings": "cited from earlier work"}, "[5]": {"biological_target": "T1, HIV-1 reverse transcriptase", "settings": "cited from earlier work"}, "5'-d(GCATGC)2": {"system": "5'-d(GCATGC)2", "test": "DNA binding by fluorescence quenching, 5'-d(GCATGC)2", "settings": "for DNA binding affinity, in words: 5'-d(GCATGC)2, relative to 1 and 4", "procedure": "as §1, §2\nA pronounced downward curvature in an infinite lattice such as calf thymus DNA is recognized to arise in part from neighbor exclusion where the binding of an agent excludes the subsequent binding at nearby sites. This exclusion manifests itself in the plot by a reduction in the apparent binding constant as the DNA lattice approaches saturation and the probability of finding a free site is diminished. In the calf thymus DNA studies, the binding also entails multiple classes of independent binding sites or modes. […]"}, "calf thymus DNA [6]": {"system": "calf thymus DNA", "test": "DNA binding constants by fluorescence quenching, calf thymus DNA", "procedure": "as §1, with “For titration, small aliquots of DNA were added to solutions of the agents in Tris-HCl buffer (pH 7.4).” left out\nDespite these precautions, the fluorescence for a number of the analog solutions decreased for several of analogs (11, 14, 17, 21 and 22) and the quality of the binding constants for these should be viewed with caution. […] The titration fluorescence quenching was analyzed by Scatchard analysis (Scatchard, G. Ann. N. Y. Acad. Sci. 1949, 51, 660) with the following equation: rb /c=Kb n-Kb rb where rb is the number of agent molecules bound per DNA base-pair, c is the free drug concentration, Kb is the apparent association constant, and n is the number of agent binding sites per base-pair. […]"}}, "note": "“Also recorded” adds a separate entry of the source. Where two headings read alike, the source gives them in different places.", "data": [{"compound": "CC(C)[C@H]1C(=O)OC[C@@H](NC(=O)c2cc3ccccc3cc2O)C(=O)N2CCCC[C@H]2C(=O)NCC(=O)N(C)CC(=O)N(C)[C@@H](C(C)C)C(=O)OC[C@@H](NC(=O)c2cc3ccccc3cc2O)C(=O)N2CCCC[C@H]2C(=O)NCC(=O)N(C)CC(=O)N1C", "note": "[compound 5, (N-(3-Hydroxynaphthyl-2-carbonyl)-D-Ser-Pip-Gly-Sar-NMe-Val)2(Serine Hydroxyl) Dilactone]", "values": [{"measurement": "HIV-1 reverse transcriptase inhibition, in words", "setting": "[1]", "result": "much less effective"}, {"measurement": "DNA binding affinity, in words", "setting": "[2]", "result": "substantially less effective than all agents in the series"}, {"measurement": "cytotoxic potency, fold less potent than 1", "setting": "L1210 cell line", "result": 10000}, {"measurement": "solubility in the fluorescence quenching assay", "setting": "[3]", "result": "not sufficiently soluble; also recorded: limited solubility"}]}, {"compound": "CC(C)[C@H]1C(=O)OC[C@@H](NC(=O)c2ccc3ccccc3c2)C(=O)N2CCCC[C@H]2C(=O)NCC(=O)N(C)CC(=O)N(C)[C@@H](C(C)C)C(=O)OC[C@@H](NC(=O)c2ccc3ccccc3c2)C(=O)N2CCCC[C@H]2C(=O)NCC(=O)N(C)CC(=O)N1C", "note": "[compound 7]", "values": [{"measurement": "HIV-1 reverse transcriptase inhibition, in words", "setting": "[1]", "result": "much less effective"}, {"measurement": "DNA binding affinity, in words", "setting": "[2]", "result": "substantially less effective than all agents in the series"}, {"measurement": "cytotoxic potency, fold less potent than 4", "setting": "L1210 cell line", "result": 2000}, {"measurement": "cytotoxic potency, fold less potent than 5", "setting": "L1210 cell line", "result": 2}, {"measurement": "solubility in the fluorescence quenching assay", "setting": "[3]", "result": "not sufficiently soluble; also recorded: limited solubility"}]}, {"compound": "CC(C)C1C(=O)OCC(NC(=O)c2cnc3ccccc3n2)C(=O)N2CCCCC2C(=O)NCC(=O)N(C)CC(=O)N(C)C(C(C)C)C(=O)OCC(NC(=O)c2cnc3ccccc3n2)C(=O)N2CCCCC2C(=O)NCC(=O)N(C)CC(=O)N1C", "note": "[compound 18, (N-(Quinoxalyl-2-carbonyl)-D-Ser-Pip-Gly-Sar-NMe-Val)2 (Serine Hydroxyl) Dilactone]", "values": [{"measurement": "HIV-1 reverse transcriptase inhibition, in words", "setting": "[1]", "result": "roughly maintain the HIV-1 reverse transcriptase inhibitory potency of 1; also recorded: Comparable but slightly less potent inhibition"}, {"measurement": "fold less potent than sandramycin", "setting": "[1]", "result": 3}, {"measurement": "cytotoxic potency, fold less potent than 4", "setting": "L1210 cell line", "result": "approximately 10"}, {"measurement": "cytotoxic potency, fold less potent than 13", "setting": "L1210 cell line", "result": "approximately 10"}, {"measurement": "cytotoxic potency, fold more potent than 19", "setting": "L1210 cell line", "result": 300}, {"measurement": "solubility in the fluorescence quenching assay", "setting": "[3]", "result": "not sufficiently soluble; also recorded: limited solubility"}]}, {"compound": "CC[n+]1c(-c2ccccc2)c2cc(N)ccc2c2ccc(N)cc21", "note": "[ethidium bromide]", "values": [{"measurement": "binding constant employed to calculate the absolute binding constant", "setting": "calf thymus DNA [4]", "result": 450000, "unit": "M⁻¹"}]}, {"compound": "COc1ccc2nc(C(=O)N[C@@H]3COC(=O)[C@H](C(C)(C)O)N(C)C(=O)CN(C)C(=O)CNC(=O)[C@@H]4[C@@H](OC(=O)[C@@H]5C[C@H]5C)CC=NN4C(=O)[C@H](NC(=O)c4cnc5cc(OC)ccc5n4)COC(=O)[C@H](C(C)(C)O)N(C)C(=O)CN(C)C(=O)CNC(=O)[C@@H]4C(OC(C)=O)CC=NN4C3=O)cnc2c1", "note": "(stereo partly shown) [quinoxapeptin B]", "values": [{"measurement": "fold less potent than quinoxapeptin A and luzopeptin A", "setting": "[5]", "result": "approximately 2"}]}, {"compound": "(N-(Iso-quinolinyl-3-carbonyl)-D-Ser-Pip-Gly-Sar-NMe-Val)2 (Serine Hydroxyl) Dilactone [compound 21]", "values": [{"measurement": "HIV-1 reverse transcriptase inhibition, in words", "setting": "[1]", "result": "much less effective"}, {"measurement": "DNA binding affinity, in words", "setting": "[2]", "result": "comparable to that of the monointercalator 24"}, {"measurement": "DNA binding affinity, in words", "setting": "5'-d(GCATGC)2", "result": "substantially less effective"}]}, {"compound": "(N-(Isoquinolinyl-1-carbonyl)-D-Ser-Pip-Gly-Sar-NMe-Val)2 (Serine Hydroxyl) Dilactone [compound 22]", "values": [{"measurement": "HIV-1 reverse transcriptase inhibition, in words", "setting": "[1]", "result": "much less effective"}, {"measurement": "DNA binding affinity, in words", "setting": "[2]", "result": "comparable to that of the monointercalator 24"}, {"measurement": "DNA binding affinity, in words", "setting": "5'-d(GCATGC)2", "result": "substantially less effective"}, {"measurement": "DNA binding affinity, in words", "setting": "calf thymus DNA [6]", "result": "comparable to 4"}]}, {"compound": "COc1ccc2nc(C(=O)N[C@@H]3COC(=O)[C@H](C(C)(C)O)N(C)C(=O)CN(C)C(=O)CNC(=O)[C@@H]4[C@@H](OC(C)=O)CC=NN4C(=O)[C@H](NC(=O)c4nc5ccc(OC)cc5cc4O)COC(=O)[C@H](C(C)(C)O)N(C)C(=O)CN(C)C(=O)CNC(=O)[C@@H]4[C@@H](OC(C)=O)CC=NN4C3=O)c(O)cc2c1", "note": "[luzopeptin A, reference compound]", "values": [{"measurement": "fold higher than values reported elsewhere", "setting": "[1]", "result": "20-30"}, {"measurement": "IC50", "setting": "[1]; range given for both agents", "result": "130 to 190", "unit": "nM"}, {"measurement": "IC50", "setting": "[5]; read-out: IC50 reported elsewhere", "result": 7, "unit": "nM"}]}, {"compound": "CC(C)C1C(=O)OCC(NC(=O)c2ncccc2O)C(=O)N2CCCCC2C(=O)NCC(=O)N(C)CC(=O)N(C)C(C(C)C)C(=O)OCC(NC(=O)c2ncccc2O)C(=O)N2CCCCC2C(=O)NCC(=O)N(C)CC(=O)N1C", "note": "(stereo not shown) [compound 8]", "values": [{"measurement": "HIV-1 reverse transcriptase inhibition, in words", "setting": "[1]", "result": "much less effective"}, {"measurement": "cytotoxic potency, fold less potent than 1", "setting": "L1210 cell line", "result": 4000}, {"measurement": "drop in DNA binding affinity", "setting": "5'-d(GCATGC)2; 5'-d(GCATGC)2, removal of fused benzene ring", "result": "2.3 to 2.6", "unit": "kcal/mol"}, {"measurement": "drop in DNA binding affinity", "setting": "calf thymus DNA [6]; removal of fused benzene ring", "result": 1.7, "unit": "kcal/mol"}]}]}
